Measured values as given in publication PMC12059162 (Scientific Reports, 2025).

Legend:
survivin = experiment: Human Apoptosis Array in PANC-1 cells; conditions: PANC-1, 0.5 µM, 72 h
DR4 = experiment: qPCR apoptotic gene expression in PANC-1 cells; conditions: PANC-1, 25 µM
DR5 = experiment: Human Apoptosis Array in PANC-1 cells; conditions: PANC-1, 0.5 µM, 72 h
cytochrome-c = experiment: Human Apoptosis Array in PANC-1 cells; conditions: PANC-1, 0.5 µM, 72 h
cleaved caspase-3 = experiment: Human Apoptosis Array in PANC-1 cells; conditions: PANC-1, 0.5 µM, 72 h
caspase-3/7 = experiment: CellEvent Caspase-3/7 activity imaging in PANC-1 cells; conditions: PANC-1, 0.5 µM, 72 h, normalised to DMSO control (n = 1)
NHDF cells = experiment: alamarBlue cell viability, healthy cells; conditions: Homo sapiens, NHDF, 72 h, read-out: IC50 values (μM) 72 hours
phospho-p53 (S392) = experiment: Human Apoptosis Array in PANC-1 cells; conditions: PANC-1, 0.5 µM, 72 h
PANC-1 cells = experiment: CyQUANT LDH direct cytotoxicity assay; assay type: cell-based, human; conditions: PANC-1, 25 µM, 72 h
Procedure: To assess the direct cytotoxicity, the CyQUANT™ LDH Cytotoxicity Assay (Invitrogen Corporation, New York, NY, USA) was used, which is a colourimetric assay. It is based on the detection of lactate dehydrogenase (LDH) activity. When there is damage to the plasma membrane, LDH is released into the cell culture medium, where it can be detected. First, 5 × 10^3 cells/well/100 µL concentration of cells were seeded in a 96-well plate, and after 24 h of incubation, the cells were treated with the molecules at concentrations of 0.5, 10 and 25 µM. After 72 h of treatment, 50 µl of the media from each sample was pipetted to a new 96-well plate. Then, the necessary steps were carried out according to the manufacturer’s instructions. Absorbance was measured for each well using a plate reader (Multiskan MS, Labsystems, Helsinki, Finland) at 492 and 680 nm. The % cytotoxicity was then calculated according to the manufacturer’s instructions. Three parallel samples were analysed in each treatment group.

Compound | survivin protein level (survivin) | DR4 mRNA expression (DR4; 3 h) | DR4 mRNA expression (DR4; 24 h, normalised to DMSO control) [fold] | DR5 protein level (DR5) | cytochrome-c protein level (cytochrome-c) | cleaved caspase-3 protein level (cleaved caspase-3) | Number of caspase-3/7 active cells, increase (caspase-3/7) [fold] | IC50 (NHDF cells) [µM] | phospho-p53 (S392) protein level (phospho-p53 (S392)) | cytotoxicity at 25 µM (PANC-1 cells; Homo sapiens, DMSO control 5.3%) [%] | Direct cytotoxicity, fold compared to the DMSO control (PANC-1 cells) [fold]
O=C1C2=C(CCN(Cc3ccccc3)C2)N2CCN=C2N1Cc1cccc(F)c1 [TBP-135] | did not exert detectable change | significantly upregulated | 3.7 | significantly increased | significantly decreased | significantly increased | 7.8 |  |  |  | 
O=C1C2=C(CCN(Cc3ccccc3)C2)N2CCN=C2N1Cc1ccc(F)cc1 [TBP-134] |  |  |  |  |  |  |  | 1.55 | decrease | 6.9 | 1.3
